Consider six molecules from patent US5807852A, “Tricyclic amide and urea compounds useful for inhibition of G-protein function and for treatment of proliferative diseases” (Schering Corporation, priority 1995, dated 1998).

This assay has as its target T1, farnesyl protein transferase (FPT) (Rattus norvegicus, UniProt Q02293+Q04631).
T1 construct: were partially purified from rat brain by ammonium sulfate fractionation; from tissue; host or cells: rat brain
As to the kind of experiment: Inhibition of farnesyl protein transferase (FPT), in vitro enzyme assay, Ras-CVLS farnesylation. Particulars: Table 22. It counts as biochemical, rat (partially purified rat brain).
Experimental: Two forms of val^12 -Ha-Ras protein were prepared as substrates for these enzymes, differing in their carboxy terminal sequence. One form terminated in cysteine-valine-leucine-serine (Ras-CVLS) the other in cystein-valine-leucine-leucine (Ras-CVLL). Ras-CVLS is a substrate for the famesyl protein transferase while Ras-CVLL is a substrate for geranylgeranyl protein transferase I. The cDNAs encoding these proteins were constructed so that the proteins contain an amino-terminal extension of 6 histidine residues. Both proteins were expressed in Escherichia coli and purified using metal chelate affinity chromatography. The radiolabelled isoprenyl pyrophosphate substrates, [^3 H]farnesyl pyrophosphate and [^3 H]geranylgeranyl pyrophosphate, were purchased from DuPont/New England Nuclear.
The reaction was allowed to proceed for 30 minutes at room temperature and then stopped with 0.5 ml of 4% sodium dodecyl sulfate (SDS) followed by 0.5 ml of cold 30% trichloracetic acid (TCA). Samples were allowed to sit on ice for 45 minutes and precipitated Ras protein was then collected on GF/C filter paper mats using a Brandel cell harvester. Filter mats were washed once with 6% TCA, 2% SDS and radioactivity was measured in a Wallac 1204 Betaplate BS liquid scintillation counter. Percent inhibition was calculated relative to the DMSO vehicle control.
In general, IC50 refers to the concentration that gives 50% inhibition. Low values mean inhibition by little substance, high ones a need for much substance. Regarding `CS(=O)(=O)c1cc(CC(=O)N2CCC(C3c4ccc(Cl)cc4CCc4cc(Br)cnc43)CC2)ccn1` (stereo not drawn) [Example 410-W], half-maximal inhibition (IC50) required 1160 nM. To `CSCC[C@H](N)C(=O)N1CCC(CC(=O)N2CCN(C3c4ccc(Cl)cc4CCc4cccnc43)CC2)CC1` (stereo partly drawn) [Example 433-B] belongs 1890 nM; to `CN1CCN(c2cc(CC(=O)N3CCC(C4c5ccc(Cl)cc5CCc5cc(Br)cnc54)CC3)ccn2)CC1` (stereo not drawn) [Example 410-U], 5000 nM; to `O=C(Cc1ccnc(-n2ccnc2)c1)N1CCC(C2c3ccc(Cl)cc3CCc3cc(Br)cnc32)CC1` (stereo not drawn) [Example 410-T], 1800 nM. To `CSc1cc(CC(=O)N2CCC(C3c4ccc(Cl)cc4CCc4cc(Br)cnc43)CC2)ccn1` (stereo not drawn) [Example 410-V] belongs 1170 nM.

`C[C@H](N)C(=O)N1CCC(CC(=O)N2CCN(C3c4ccc(Cl)cc4CCc4cccnc43)CC2)CC1` (stereo partly drawn) [Example 433] had a 50% inhibitory concentration (IC50) of 2500 nM.
